Laboratory results taken from US11365199B2, “Pyrazole compounds as modulators of FSHR and uses thereof” (Merck Patent GmbH, priority 2013, dated 2022).
Like-named read-outs stand apart in the source and are kept apart here.

Assays:
[1] = molecular target: T1, follicle-stimulating hormone (FSH) receptor (Rattus norvegicus, UniProt P20395); assay: Rat granulosa EC50 FSH (Assay B); type: cell-based; details: for EC50: rat granulosa cells, read-out: Assay B: Rat granulosa EC50 FSH
T1 construct: endogenous in cells; host or cells: primary rat granulosa cells
T1 sequence (P20395 18-692): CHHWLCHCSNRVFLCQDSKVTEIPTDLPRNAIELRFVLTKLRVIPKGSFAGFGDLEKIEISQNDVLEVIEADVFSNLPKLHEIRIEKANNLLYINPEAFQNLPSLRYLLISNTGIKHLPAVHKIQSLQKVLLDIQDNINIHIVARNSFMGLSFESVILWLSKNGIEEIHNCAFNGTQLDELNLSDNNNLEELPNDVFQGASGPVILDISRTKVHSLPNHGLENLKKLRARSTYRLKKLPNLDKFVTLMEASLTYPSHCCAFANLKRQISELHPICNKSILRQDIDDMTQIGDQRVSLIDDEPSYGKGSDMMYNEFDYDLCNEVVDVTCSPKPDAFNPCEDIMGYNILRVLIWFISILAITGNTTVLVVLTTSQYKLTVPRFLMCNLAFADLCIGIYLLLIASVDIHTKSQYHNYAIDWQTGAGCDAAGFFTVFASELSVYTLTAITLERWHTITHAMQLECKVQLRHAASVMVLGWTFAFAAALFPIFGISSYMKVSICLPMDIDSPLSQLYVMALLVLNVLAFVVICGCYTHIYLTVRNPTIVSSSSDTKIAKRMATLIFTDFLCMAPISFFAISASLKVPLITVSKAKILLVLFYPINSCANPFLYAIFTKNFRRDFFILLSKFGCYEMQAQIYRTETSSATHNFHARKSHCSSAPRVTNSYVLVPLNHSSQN
Method: Rat Granulosa EC50 FSH (Assay B)
The assay was performed pursuant to the teaching of Yanofsky et al. (2006) Allosteric activation of the follicle-stimulating hormone (FSH) receptor by selective, nonpeptide agonists (JBC 281(19): 13226-13233, which is incorporated by reference in the disclosure of the invention).

FSHR = molecular target: T2, FSHR (Homo sapiens, UniProt P23945); assay: EC50 of cyclic AMP production in CHO FSHR cells + EC20 FSH (Assay A); type: cell-based; details: CHO FSHR cells + EC20 FSH, cAMP HTRF; read-out: Assay A: EC50 of cyclic AMP production
T2 construct: expressed in transfected cells; host or cells: CHO (Cho-FSHR-LUC-1-1-43)
T2 sequence (P23945 18-695): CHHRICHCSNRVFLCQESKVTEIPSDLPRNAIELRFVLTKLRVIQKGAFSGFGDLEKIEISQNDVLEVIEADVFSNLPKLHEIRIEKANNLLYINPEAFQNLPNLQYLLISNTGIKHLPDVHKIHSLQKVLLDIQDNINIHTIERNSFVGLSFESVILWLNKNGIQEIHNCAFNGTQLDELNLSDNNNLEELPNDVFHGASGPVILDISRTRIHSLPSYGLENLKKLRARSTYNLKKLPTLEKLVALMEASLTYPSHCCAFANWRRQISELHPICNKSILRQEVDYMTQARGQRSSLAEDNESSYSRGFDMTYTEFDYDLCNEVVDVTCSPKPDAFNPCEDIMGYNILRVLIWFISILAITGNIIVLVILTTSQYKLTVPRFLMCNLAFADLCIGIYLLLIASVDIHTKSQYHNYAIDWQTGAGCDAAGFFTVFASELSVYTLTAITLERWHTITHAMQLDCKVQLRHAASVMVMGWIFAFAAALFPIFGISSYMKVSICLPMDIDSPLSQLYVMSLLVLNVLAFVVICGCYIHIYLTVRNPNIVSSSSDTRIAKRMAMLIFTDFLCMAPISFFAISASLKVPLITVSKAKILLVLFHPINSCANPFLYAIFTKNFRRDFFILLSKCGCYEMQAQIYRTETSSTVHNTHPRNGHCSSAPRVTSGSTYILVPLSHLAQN
How it was run: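 Cho-FSHR-LUC cells were exposed to compound dilution series with EC20 FSH ([…]) and 200 μM IBMX for 1 h at 37° C. cAMP was read by HTRF (665/620 nm ratio). Effects are percent of the maximal FSH standard response.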

[2] = read-out: Assay B: percental effect (response) relative to the maximum response of the FSH standard

| SMILES | EC50 [1] | EC50 (FSHR) | Emax at 6 µM ([1]; @ 6 μM, read-out: Assay B: percental effect (response) relative to the maximum response of the FSH standard) | Emax at 6 µM [1, 2] | Emax at 30 µM [1, 2] |
| --- | --- | --- | --- | --- | --- |
| COc1cc2c(cc1-c1cnn(CC3OCCO3)c1)-c1c(c(C(=O)N3CCOCC3(C)C)nn1-c1ccsc1)CO2 [Compound 209, (3,3-Dimethyl-morpholin-4-yl)-[8-(1-[1,3]dioxolan-2-ylmethyl-1H-pyrazol-4-yl)-7-methoxy-1-thiophen-3-yl-1,4-dihydro-chromeno[4,3-c]pyrazol-3-yl]-methanone] | < 100 nM | < 100 nM | – | – | – |
| COc1cc2c(cc1Br)-c1c(c(C(=O)N(C)C(C)(C)C)nn1-c1ccsc1)CO2 [Compound 4, 8-Bromo-7-methoxy-1-thiophen-3-yl-1,4-dihydro-chromeno[4,3-c]pyrazole-3-carboxylic Acid tert-butyl-methyl-amide] | – | 100 to 1000 nM | – | 62% | – |
| COc1cc2c(cc1-c1cccnc1)-c1c(c(C(=O)N(C)C(C)(C)C)nn1-c1ccsc1)CO2 [Compound 2, 7-Methoxy-8-pyridin-3-yl-1-thiophen-3-yl-1,4-dihydro-chromeno[4,3-c]pyrazole-3-carboxylic Acid tert-butyl-methyl-amide] | – | < 100 nM | – | – | 54% |
| COc1cc2c(cc1-c1ccn(C)n1)-c1c(c(C(=O)N3CCN(C)CC3(C)C)nn1-c1ccsc1)CO2 [Compound 159, [7-Methoxy-8-(1-methyl-1H-pyrazol-3-yl)-1-thiophen-3-yl-1,4-dihydro-chromeno[4,3-c]pyrazol-3-yl]-(2,2,4-trimethyl-piperazin-1-yl)-methanone] | < 100 nM | < 100 nM | – | – | – |
| COC/C=C/c1cc2c(cc1OC)OCc1c(C(=O)N(C)C(C)(C)C)nn(-c3ccsc3)c1-2 [Compound 147, 7-Methoxy-8-((E)-3-methoxy-propenyl)-1-thiophen-3-yl-1,4-dihydro-chromeno[4,3-c]pyrazole-3-carboxylic acid tert-butyl-methyl-amide] | 100 to 1000 nM | < 100 nM | – | – | – |
| COc1cc2c(cc1-c1ccn(C)c1)-c1c(c(C(=O)N3CCN(C)CC3(C)C)nn1-c1ccsc1)CO2 [Compound 160, [7-Methoxy-8-(1-methyl-1H-pyrrol-3-yl)-1-thiophen-3-yl-1,4-dihydro-chromeno[4,3-c]pyrazol-3-yl]-(2,2,4-trimethyl-piperazin-1-yl)-methanone] | < 100 nM | < 100 nM | – | – | – |
| COc1cc2c(cc1-c1cn[nH]c1)-c1c(c(C(=O)N(C)C(C)(C)C)nn1-c1ccsc1)CO2 [Compound 1, 7-Methoxy-8-(1H-pyrazol-4-yl)-1-thiophen-3-yl-1,4-dihydro-chromeno[4,3-c]pyrazole-3-carboxylic Acid tert-butyl-methyl-amide] | < 100 nM | < 100 nM | – | – | – |
| COCOCCn1cc(-c2cc3c(cc2OC)OCc2c(C(=O)N4CCOCC4(C)C)nn(-c4ccsc4)c2-3)cn1 [Compound 205, (3,3-Dimethyl-morpholin-4-yl)-{7-methoxy-8-[1-(2-methoxymethoxy-ethyl)-1H-pyrazol-4-yl]-1-thiophen-3-yl-1,4-dihydro-chromeno[4,3-c]pyrazol-3-yl}-methanone] | < 100 nM | < 100 nM | – | – | – |
| COc1cc2c(cc1-c1nc[nH]n1)-c1c(c(C(=O)N3CCOCC3(C)C)nn1-c1ccsc1)CO2 [Compound 161, (3,3-Dimethyl-morpholin-4-yl)-[7-methoxy-1-thiophen-3-yl-8-(5H-[1,2,4]triazol-3-yl)-1,4-dihydro-chromeno[4,3-c]pyrazol-3-yl]-methanone] | < 100 nM | < 100 nM | – | – | – |
| COC(=O)C1CCCN(C(=O)c2nn(-c3ccsc3)c3c2COc2cc(OC)c(C=C(C)C)cc2-3)CC1 (centres unmarked) [Compound 17, 1-[7-Methoxy-8-(2-methyl-propenyl)-1-thiophen-3-yl-1,4-dihydro-chromeno[4,3-c]pyrazole-3-carbonyl]-azepane-4-carboxylic acid methyl ester] | > 5000 nM | 100 to 1000 nM | – | – | – |
| [2H]C([2H])([2H])N(CCN1CCOC1=O)C(=O)c1nn(-c2ccsc2)c2c1COc1cc(OC)c(CC(C)C)cc1-2 [Compound 214] | 1000 to 5000 nM | < 100 nM | – | – | – |
| [2H]C([2H])([2H])OCC(C)(C)N(C(=O)c1nn(-c2ccsc2)c2c1COc1cc(OC)c(CC(C)C)cc1-2)C([2H])([2H])[2H] [Compound 83] | 100 to 1000 nM | < 100 nM | – | – | – |

Continued, in another order:

| EC50 [1] | EC50 (FSHR) | Emax at 6 µM ([1]; @ 6 μM, read-out: Assay B: percental effect (response) relative to the maximum response of the FSH standard) | SMILES | Emax at 6 µM [1, 2] | Emax at 30 µM [1, 2] |
| --- | --- | --- | --- | --- | --- |
| < 100 nM | < 100 nM | – | COc1cc2c(cc1-c1cn(C)nn1)-c1c(c(C(=O)N(C)C(C)(C)C)nn1-c1ccsc1)CO2 [Compound 153, 7-Methoxy-8-(1-methyl-1H-[1,2,3]triazol-4-yl)-1-thiophen-3-yl-1,4-dihydro-chromeno[4,3-c]pyrazole-3-carboxylic acid tert-butyl-methyl-amide] | – | – |
| 100 to 1000 nM | < 100 nM | – | [2H]C([2H])([2H])OC1(CN(C(=O)c2nn(-c3ccsc3)c3c2COc2cc(OC)c(-c4ccn(C)c4)cc2-3)C([2H])([2H])[2H])COC1 [Compound 168] | – | – |
| – | 1000 to 5000 nM | 43.5% | COc1cc2c(cc1C=C(C)C)-c1c(c(C(=O)NCCNC(C)=O)nn1-c1ccsc1)CO2 [Compound 7, 7-Methoxy-8-(2-methyl-propenyl)-1-thiophen-3-yl-1,4-dihydro-chromeno[4,3-c]pyrazole-3-carboxylic Acid (2-acetylamino-ethyl)-amide] | – | – |
| < 100 nM | < 100 nM | – | [2H]C([2H])([2H])OCCC1(N(C(=O)c2nn(-c3ccsc3)c3c2COc2cc(OC)c(-c4ccn(C)c4)cc2-3)C([2H])([2H])[2H])COC1 [Compound 198] | – | – |
| 100 to 1000 nM | 100 to 1000 nM | – | [2H]C([2H])([2H])N(C(=O)c1nn(-c2ccsc2)c2c1COc1cc(OC)c(-c3ccn(C)c3)cc1-2)C1CCOC1 (centres unmarked) [Compound 146] | – | – |
| 100 to 1000 nM | < 100 nM | – | COc1cc2c(cc1-c1ccn(C)n1)-c1c(c(C(=O)N(C)C(C)(C)C)nn1-c1ccsc1)CO2 [Compound 63, 7-Methoxy-8-(1-methyl-1H-pyrazol-3-yl)-1-thiophen-3-yl-1,4-dihydro-chromeno[4,3-c]pyrazole-3-carboxylic acid tert-butyl-methyl-amide] | – | – |
| 1000 to 5000 nM | < 100 nM | – | COc1cc2c(cc1-c1ccn(C)c1)-c1c(c(C(=O)N3CCOCC3(C)C)nn1-c1ccsc1)CO2 [Compound 98, (3,3-Dimethyl-morpholin-4-yl)-[7-methoxy-8-(1-methyl-1H-pyrrol-3-yl)-1-thiophen-3-yl-1,4-dihydro-chromeno[4,3-c]pyrazol-3-yl]-methanone] | – | – |
| > 5000 nM | 1000 to 5000 nM | – | COc1cc2c(cc1OC(C)C)-c1c(c(C(=O)N3CCCC(C(=O)N4CCC4)CC3)nn1-c1ccsc1)CO2 (centres unmarked) [Compound 26, [4-(Azetidine-1-carbonyl)-azepan-1-yl]-(8-isopropoxy-7-methoxy-1-thiophen-3-yl-1,4-dihydro-chromeno[4,3-c]pyrazol-3-yl)-methanone] | – | – |
| > 5000 nM | 100 to 1000 nM | – | COc1cc2c(cc1CNC(C)=O)-c1c(c(C(=O)N3CCOCC3(C)C)nn1-c1ccsc1)CO2 [Compound 175, N-[3-(3,3-Dimethyl-morpholine-4-carbonyl)-7-methoxy-1-thiophen-3-yl-1,4-dihydro-chromeno[4,3-c]pyrazol-8-ylmethyl]-acetamide] | – | – |
| 100 to 1000 nM | < 100 nM | – | COc1cc2c(cc1-c1ccn(C)n1)-c1c(c(C(=O)N3CCNCC3(C)C)nn1-c1ccsc1)CO2 [Compound 169, (2,2-Dimethyl-piperazin-1-yl)-[7-methoxy-8-(1-methyl-1H-pyrazol-3-yl)-1-thiophen-3-yl-1,4-dihydro-chromeno[4,3-c]pyrazol-3-yl]-methanone] | – | – |
